Measured values: PubChem BioAssay (NCI)
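GI50 marks 50% less growth. TGI marks complete inhibition of growth.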

Assays:
Assay in all cases: NCI anticancer screen, dose series, 384-well format
[1] = system: SN12C renal
[2] = system: SF-268 CNS
[3] = system: SW-620 colon
[4] = system: HL-60(TB) leukemia
[5] = system: HCT-116 colon
[6] = system: M14 melanoma
[7] = system: RPMI-8226 leukemia
[8] = system: HOP-62 NSCLC
[9] = system: 786-0 renal
[10] = system: HCT-15 colon
[11] = system: CAKI-1 renal
[12] = system: CCRF-CEM leukemia
[13] = system: UACC-62 melanoma
[14] = system: SF-539 CNS
[15] = system: SNB-75 CNS
[16] = system: MDA-MB-231 breast
[17] = system: MDA-MB-468 breast
[18] = system: SF-295 CNS
[19] = system: BT-549 breast
[20] = system: NCI-H522 lung
[21] = system: SNB-19 CNS
[22] = system: SK-MEL-2 melanoma
[23] = system: LOX IMVI melanoma
[24] = system: K-562 leukemia
[25] = system: U251 glioblastoma
[26] = system: MOLT-4 leukemia
[27] = system: OVCAR-8 ovarian
[28] = system: MALME-3M melanoma
[29] = system: RXF 393 renal

O=NN(CCCl)C(=O)NCCCl
GI50 [1]: 74.1 µM
GI50 [2]: 15.9 µM
GI50 [3]: 54.2 µM
GI50 [4]: 15.1 µM
TGI [4]: 28.5 µM
GI50 [5]: 49.8 µM
GI50 [6]: 69.9 µM
GI50 [7]: 20 µM
TGI [7]: 48.7 µM
GI50 [8]: 34.6 µM
GI50 [9]: 43.3 µM
GI50 [10]: 46.5 µM
GI50 [11]: 81.2 µM
GI50 [12]: 22.3 µM
TGI [12]: 40.9 µM
GI50 [13]: 19.4 µM
GI50 [14]: 24.4 µM
TGI [14]: 90.1 µM
GI50 [15]: 26.7 µM
GI50 [16]: 55.9 µM
GI50 [17]: 23.7 µM
GI50 [18]: 25.4 µM
TGI [18]: 73 µM
GI50 [19]: 36 µM
GI50 [20]: 32.4 µM
GI50 [21]: 56.2 µM
GI50 [22]: 61.5 µM
GI50 [23]: 24.2 µM
GI50 [24]: 46.5 µM
GI50 [25]: 23.9 µM
GI50 [26]: 15.6 µM
TGI [26]: 29.5 µM
GI50 [27]: 97.8 µM
GI50 [28]: 75.9 µM
GI50 [29]: 56.9 µM
